Measured values reported in BindingDB's records for doi:10.1021/cb500956g (University of North Carolina At Chapel Hill, 2015).

Key:
Settings in all cases: pH 8
[1] = molecular target: T1, Chromobox protein homolog 7 (Homo sapiens, UniProt O95931); experiment: AlphaScreen Assay
T1 sequence (O95931 whole entry): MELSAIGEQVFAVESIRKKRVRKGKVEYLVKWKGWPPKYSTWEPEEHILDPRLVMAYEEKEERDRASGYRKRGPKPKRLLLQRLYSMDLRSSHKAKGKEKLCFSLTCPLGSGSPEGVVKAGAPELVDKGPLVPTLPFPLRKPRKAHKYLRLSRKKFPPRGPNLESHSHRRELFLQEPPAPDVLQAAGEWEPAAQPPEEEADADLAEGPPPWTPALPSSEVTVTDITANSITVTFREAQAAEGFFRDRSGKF
Method: (§1) In brief, compound plates (1 μL at 10 mM highest concentration; 3-fold, 10-point dilutions in DMSO) were diluted in 1X assay buffer (20 mM TRIS pH 8.0, 25 mM NaCl, 2 mM DTT and 0.05% Tween-20) to 1 mM using a Multimek robotic pipettor (Nanoscreen), and 1 μL was spotted into the wells of 384-well low-volume Proxiplates (PerkinElmer). To these plates was added 9 μL of protein−peptide mix in a 1X assay buffer by Multidrop (Thermo) to bring the final compound concentration to 100 μM, and this was incubated for 30 min at RT. Next, 2 μL of a 1:1 mixture of streptavidin-conjugate donor and nickel-chelate acceptor beads (45μg/mL in 1X assay buffer) were added, and the plates were allowed to incubate for an additional 30 min in the dark at RT. After incubation, the plates were read on an EnVision multilabel reader equipped with an HTS AlphaScreen laser (PerkinElmer).

[2] = molecular target: T2, E3 ubiquitin-protein ligase UHRF1 (Homo sapiens, UniProt Q96T88); experiment: AlphaScreen Assay
T2 sequence (Q96T88 whole entry): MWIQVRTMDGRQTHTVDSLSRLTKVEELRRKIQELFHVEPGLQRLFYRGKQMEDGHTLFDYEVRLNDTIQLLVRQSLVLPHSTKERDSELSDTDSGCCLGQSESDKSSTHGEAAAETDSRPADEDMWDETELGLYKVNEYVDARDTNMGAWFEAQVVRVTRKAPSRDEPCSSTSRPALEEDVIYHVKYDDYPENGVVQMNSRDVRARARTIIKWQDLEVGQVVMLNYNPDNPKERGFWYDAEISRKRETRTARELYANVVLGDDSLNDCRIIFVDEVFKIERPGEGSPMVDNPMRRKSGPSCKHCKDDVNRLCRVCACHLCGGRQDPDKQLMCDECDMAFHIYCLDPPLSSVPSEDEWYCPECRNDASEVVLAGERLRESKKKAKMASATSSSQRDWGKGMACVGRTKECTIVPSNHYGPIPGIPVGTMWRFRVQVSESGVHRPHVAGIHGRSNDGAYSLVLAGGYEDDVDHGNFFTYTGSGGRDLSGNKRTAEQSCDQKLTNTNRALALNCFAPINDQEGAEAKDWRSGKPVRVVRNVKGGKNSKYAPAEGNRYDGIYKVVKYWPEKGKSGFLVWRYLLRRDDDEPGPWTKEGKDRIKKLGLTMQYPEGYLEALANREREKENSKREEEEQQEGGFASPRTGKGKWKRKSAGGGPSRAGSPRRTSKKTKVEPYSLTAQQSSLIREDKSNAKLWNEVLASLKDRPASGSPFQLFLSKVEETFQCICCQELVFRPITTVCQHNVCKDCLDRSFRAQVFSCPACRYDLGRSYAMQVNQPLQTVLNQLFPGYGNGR
Method: as §1

[3] = molecular target: T3, Isoform 4 of Lethal(3)malignant brain tumor-like protein 1 (4) (Homo sapiens, UniProt Q9Y468); experiment: AlphaScreen Assay
T3 sequence (Q9Y468 whole entry): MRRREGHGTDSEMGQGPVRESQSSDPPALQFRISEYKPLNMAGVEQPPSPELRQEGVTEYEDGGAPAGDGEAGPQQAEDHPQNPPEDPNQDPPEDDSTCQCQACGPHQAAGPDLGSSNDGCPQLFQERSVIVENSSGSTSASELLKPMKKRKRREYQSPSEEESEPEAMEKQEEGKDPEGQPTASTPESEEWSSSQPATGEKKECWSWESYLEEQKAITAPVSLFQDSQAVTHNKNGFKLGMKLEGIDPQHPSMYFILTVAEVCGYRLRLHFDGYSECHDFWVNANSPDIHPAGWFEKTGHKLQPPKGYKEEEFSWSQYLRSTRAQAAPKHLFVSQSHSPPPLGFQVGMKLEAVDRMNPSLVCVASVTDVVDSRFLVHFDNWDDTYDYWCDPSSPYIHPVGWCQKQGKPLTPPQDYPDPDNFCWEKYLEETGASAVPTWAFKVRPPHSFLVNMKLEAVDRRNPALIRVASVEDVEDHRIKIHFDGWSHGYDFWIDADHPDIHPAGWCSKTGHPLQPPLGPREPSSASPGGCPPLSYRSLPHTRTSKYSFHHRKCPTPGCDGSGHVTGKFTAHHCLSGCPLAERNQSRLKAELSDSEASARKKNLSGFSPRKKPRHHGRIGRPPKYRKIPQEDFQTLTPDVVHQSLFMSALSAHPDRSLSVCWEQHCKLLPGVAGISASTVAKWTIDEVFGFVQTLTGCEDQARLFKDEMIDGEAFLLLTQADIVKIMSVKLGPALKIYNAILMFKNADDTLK
Method: as §1

[4] = molecular target: Lysine-specific demethylase 5A (Homo sapiens, UniProt P29375); experiment: AlphaScreen Assay
Chain of Lysine-specific demethylase 5A (P29375 whole entry): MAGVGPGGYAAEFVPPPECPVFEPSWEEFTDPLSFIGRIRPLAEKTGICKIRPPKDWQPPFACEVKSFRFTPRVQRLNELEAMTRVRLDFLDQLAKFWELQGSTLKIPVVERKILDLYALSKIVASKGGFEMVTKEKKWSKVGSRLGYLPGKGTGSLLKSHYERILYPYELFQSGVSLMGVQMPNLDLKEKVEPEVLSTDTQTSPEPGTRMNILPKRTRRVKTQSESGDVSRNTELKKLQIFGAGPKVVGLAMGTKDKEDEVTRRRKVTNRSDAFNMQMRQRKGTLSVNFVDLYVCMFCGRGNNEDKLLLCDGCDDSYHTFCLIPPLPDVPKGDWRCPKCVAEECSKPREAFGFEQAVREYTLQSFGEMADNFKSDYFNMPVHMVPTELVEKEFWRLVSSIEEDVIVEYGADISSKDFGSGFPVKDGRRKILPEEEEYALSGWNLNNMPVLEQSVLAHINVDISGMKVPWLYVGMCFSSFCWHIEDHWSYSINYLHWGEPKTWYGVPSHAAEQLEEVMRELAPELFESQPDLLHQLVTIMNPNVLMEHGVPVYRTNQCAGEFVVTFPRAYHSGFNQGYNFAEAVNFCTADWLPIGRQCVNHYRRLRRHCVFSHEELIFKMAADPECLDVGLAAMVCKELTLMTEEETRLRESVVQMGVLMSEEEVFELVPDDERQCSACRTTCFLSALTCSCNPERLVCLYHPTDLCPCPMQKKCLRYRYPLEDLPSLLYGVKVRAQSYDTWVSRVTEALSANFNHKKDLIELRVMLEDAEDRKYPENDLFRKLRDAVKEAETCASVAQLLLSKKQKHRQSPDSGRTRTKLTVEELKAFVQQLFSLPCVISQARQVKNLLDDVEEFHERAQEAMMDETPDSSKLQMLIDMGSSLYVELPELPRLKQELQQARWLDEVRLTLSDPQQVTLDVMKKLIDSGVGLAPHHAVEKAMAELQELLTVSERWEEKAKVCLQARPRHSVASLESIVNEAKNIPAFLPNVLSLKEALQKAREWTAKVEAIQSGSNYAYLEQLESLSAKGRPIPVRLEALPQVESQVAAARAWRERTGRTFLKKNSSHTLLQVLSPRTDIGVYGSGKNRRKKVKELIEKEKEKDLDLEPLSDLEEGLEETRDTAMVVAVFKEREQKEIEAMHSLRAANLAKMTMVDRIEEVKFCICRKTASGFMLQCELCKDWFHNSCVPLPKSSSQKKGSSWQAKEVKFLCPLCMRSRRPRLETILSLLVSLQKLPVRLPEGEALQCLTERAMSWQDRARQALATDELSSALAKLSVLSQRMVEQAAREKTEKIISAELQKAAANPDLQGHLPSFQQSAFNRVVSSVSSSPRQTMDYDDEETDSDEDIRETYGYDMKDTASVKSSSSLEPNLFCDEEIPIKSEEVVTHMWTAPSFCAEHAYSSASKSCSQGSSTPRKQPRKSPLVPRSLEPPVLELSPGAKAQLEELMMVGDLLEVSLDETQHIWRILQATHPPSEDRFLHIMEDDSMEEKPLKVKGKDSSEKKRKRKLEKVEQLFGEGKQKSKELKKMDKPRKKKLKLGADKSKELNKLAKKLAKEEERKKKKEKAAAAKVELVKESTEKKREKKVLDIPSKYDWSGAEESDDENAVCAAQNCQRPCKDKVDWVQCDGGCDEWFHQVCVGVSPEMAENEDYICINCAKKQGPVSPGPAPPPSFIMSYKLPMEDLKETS
Method: as §1

[5] = molecular target: MBT domain-containing protein 1 (Homo sapiens, UniProt Q05BQ5); experiment: AlphaScreen Assay
Chain of MBT domain-containing protein 1 (Q05BQ5 whole entry, the tested form may be a part): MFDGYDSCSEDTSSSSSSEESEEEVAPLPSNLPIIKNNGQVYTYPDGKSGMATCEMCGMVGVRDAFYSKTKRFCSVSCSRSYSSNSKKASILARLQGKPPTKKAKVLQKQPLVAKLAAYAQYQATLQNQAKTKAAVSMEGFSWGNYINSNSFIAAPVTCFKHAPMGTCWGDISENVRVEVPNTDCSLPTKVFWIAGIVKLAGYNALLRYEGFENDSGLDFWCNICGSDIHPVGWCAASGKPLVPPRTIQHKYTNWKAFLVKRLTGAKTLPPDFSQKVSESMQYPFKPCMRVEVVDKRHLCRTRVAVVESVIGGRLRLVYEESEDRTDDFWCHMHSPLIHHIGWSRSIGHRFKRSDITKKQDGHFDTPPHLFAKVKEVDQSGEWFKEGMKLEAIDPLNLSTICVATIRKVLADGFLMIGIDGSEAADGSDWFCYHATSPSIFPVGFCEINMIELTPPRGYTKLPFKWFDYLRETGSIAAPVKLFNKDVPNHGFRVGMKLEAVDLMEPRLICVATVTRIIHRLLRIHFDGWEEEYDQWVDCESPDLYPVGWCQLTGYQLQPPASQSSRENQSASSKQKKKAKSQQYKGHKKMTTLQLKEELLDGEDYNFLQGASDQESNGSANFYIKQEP
Method: as §1

PHD finger protein 1 = molecular target: T4, PHD finger protein 1 (Homo sapiens, UniProt O43189); experiment: AlphaScreen Assay
T4 sequence (O43189 whole entry): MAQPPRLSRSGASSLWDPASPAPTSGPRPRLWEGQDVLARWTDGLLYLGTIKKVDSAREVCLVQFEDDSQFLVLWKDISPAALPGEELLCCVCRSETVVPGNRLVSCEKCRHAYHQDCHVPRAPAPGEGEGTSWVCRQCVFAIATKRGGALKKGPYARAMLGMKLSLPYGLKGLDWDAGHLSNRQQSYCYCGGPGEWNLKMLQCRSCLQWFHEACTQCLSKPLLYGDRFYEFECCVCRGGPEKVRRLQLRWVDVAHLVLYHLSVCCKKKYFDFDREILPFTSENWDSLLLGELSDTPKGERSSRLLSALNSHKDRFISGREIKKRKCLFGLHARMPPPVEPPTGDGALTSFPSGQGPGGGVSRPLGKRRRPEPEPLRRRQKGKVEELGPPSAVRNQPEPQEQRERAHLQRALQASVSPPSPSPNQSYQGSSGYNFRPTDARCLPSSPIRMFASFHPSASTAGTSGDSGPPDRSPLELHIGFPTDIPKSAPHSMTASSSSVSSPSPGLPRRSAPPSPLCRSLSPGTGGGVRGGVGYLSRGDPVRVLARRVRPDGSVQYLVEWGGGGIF
Method: as §1

PHD finger protein 19 = PHD finger protein 19 (Homo sapiens, UniProt Q5T6S3); experiment: AlphaScreen Assay
Method: as §1

PHD finger protein 23 = PHD finger protein 23 (Homo sapiens, UniProt Q9BUL5); experiment: AlphaScreen Assay
Chain of PHD finger protein 23 (Q9BUL5 whole entry): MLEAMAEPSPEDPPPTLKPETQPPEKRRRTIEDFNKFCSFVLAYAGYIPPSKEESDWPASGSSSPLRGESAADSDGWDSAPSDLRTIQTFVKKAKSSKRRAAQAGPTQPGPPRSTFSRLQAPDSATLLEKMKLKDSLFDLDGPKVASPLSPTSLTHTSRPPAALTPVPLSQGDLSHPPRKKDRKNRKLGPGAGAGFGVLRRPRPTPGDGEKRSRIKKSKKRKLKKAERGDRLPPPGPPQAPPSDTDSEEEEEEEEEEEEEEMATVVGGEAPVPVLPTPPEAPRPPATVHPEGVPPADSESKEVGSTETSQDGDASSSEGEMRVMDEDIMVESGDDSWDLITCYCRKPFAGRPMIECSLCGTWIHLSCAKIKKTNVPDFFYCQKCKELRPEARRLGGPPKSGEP
Method: as §1

TP53-binding protein 1 [6] = molecular target: T5, TP53-binding protein 1 (Homo sapiens, UniProt Q12888); experiment: AlphaScreen Assay
T5 sequence (Q12888 whole entry): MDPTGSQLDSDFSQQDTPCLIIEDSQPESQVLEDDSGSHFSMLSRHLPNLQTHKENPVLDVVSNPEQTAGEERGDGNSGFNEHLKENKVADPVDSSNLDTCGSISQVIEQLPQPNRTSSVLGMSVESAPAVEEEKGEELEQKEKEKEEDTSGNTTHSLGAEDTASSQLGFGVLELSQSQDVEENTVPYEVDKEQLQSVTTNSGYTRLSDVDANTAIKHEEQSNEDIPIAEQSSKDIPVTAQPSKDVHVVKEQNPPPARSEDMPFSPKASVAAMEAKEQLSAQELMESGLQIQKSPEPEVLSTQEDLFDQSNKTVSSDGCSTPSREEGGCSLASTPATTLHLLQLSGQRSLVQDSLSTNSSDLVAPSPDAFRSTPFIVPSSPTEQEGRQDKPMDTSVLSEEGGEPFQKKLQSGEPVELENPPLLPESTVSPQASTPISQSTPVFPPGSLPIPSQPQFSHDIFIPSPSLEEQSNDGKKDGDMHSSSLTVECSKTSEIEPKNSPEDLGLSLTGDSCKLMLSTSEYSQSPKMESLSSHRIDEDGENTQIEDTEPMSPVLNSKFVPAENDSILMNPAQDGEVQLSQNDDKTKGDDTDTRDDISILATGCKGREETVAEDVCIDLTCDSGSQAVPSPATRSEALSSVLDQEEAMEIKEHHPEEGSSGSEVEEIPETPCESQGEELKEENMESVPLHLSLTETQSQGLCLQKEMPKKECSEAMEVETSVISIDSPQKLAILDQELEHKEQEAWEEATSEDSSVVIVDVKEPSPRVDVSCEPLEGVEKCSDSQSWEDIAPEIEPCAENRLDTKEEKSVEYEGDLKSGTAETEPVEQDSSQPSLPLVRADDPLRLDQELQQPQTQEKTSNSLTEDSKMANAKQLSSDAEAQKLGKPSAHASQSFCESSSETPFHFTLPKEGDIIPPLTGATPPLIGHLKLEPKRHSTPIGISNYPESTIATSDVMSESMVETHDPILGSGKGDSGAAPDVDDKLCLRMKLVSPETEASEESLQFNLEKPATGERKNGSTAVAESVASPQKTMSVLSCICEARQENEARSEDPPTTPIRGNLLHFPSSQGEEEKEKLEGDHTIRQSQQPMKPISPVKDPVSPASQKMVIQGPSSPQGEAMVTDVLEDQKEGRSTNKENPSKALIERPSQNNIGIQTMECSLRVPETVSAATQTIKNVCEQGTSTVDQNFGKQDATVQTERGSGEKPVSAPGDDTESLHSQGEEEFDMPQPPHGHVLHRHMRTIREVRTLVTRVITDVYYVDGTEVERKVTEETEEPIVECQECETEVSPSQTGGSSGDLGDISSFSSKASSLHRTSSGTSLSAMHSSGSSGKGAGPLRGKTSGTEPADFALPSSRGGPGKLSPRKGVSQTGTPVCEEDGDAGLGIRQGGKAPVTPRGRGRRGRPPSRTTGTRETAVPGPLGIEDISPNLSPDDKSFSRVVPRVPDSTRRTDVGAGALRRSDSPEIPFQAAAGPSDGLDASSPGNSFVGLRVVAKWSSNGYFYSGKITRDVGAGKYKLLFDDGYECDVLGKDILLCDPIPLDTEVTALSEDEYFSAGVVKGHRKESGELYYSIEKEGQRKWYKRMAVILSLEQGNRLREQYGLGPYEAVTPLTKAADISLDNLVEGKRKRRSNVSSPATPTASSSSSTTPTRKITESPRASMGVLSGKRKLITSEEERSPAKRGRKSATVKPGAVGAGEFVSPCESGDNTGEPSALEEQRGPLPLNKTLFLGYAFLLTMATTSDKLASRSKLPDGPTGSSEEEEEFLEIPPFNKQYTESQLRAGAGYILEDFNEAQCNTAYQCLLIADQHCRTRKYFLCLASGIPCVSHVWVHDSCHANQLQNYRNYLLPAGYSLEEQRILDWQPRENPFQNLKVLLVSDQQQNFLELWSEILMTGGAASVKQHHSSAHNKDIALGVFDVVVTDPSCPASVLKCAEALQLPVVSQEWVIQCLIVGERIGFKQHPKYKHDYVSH
Method: as §1

TP53-binding protein 1 [7] = molecular target: T5, TP53-binding protein 1; experiment: ITC
Method: All ITC measurements were recorded at 25 °C with an AutoITC200 microcalorimeter (MicroCal Inc.). All protein and compound stock samples were in the target buffer (25 mM Tris-HCl, pH 8, 150 mM NaCl, and 2 mM β-mercaptoethanol), and then diluted in the same buffer to achieve the desired concentrations: 90 200 μM protein and 1 2 mM compound depending on the expected dissociation constant. The concentration of protein stock solutions were established using the Edelhoch method, whereas 10 mM compound stock solutions were prepared gravimetrically based on molecular weight. A typical experiment included a single 0.2 μL compound injection into a 200 μL cell filled with protein, followed by 25 subsequent 1.5 μL injections of compound. Injections were performed with a spacing of 180 seconds and a reference power of 8 μcal/sec.

Row | Kd (TP53-binding protein 1 [7]) [µM] | SMILES | IC50 [1] [µM] | IC50 [2] [µM] | IC50 [3] [µM] | IC50 [4] [µM] | IC50 [5] [µM] | IC50 (PHD finger protein 1) [µM] | IC50 (PHD finger protein 19) [µM] | IC50 (PHD finger protein 23) [µM] | IC50 (TP53-binding protein 1 [6]) [µM]
1 |  | CC(C)(C)OCCCNC(=O)c1cccc(Br)c1 [3-Bromo-N-(3-(tert-butoxy)propyl)benzamide (5)] | > 100 | > 100 | > 100 | > 100 | > 100 | > 100 | > 100 | > 100 | > 100
2 | 22 | CC(C)(C)NCCCNC(=O)c1cccc(Br)c1 [3-Bromo-N-(3-(tert-butylamino)propyl)benzamide (UNC2170, 1)] | > 500 | > 500 | > 500 | > 500 | > 500 | > 500 | > 500 | > 500 | 29
3 |  | CN(CCCNC(=O)c1cccc(Br)c1)C(C)(C)C [3-Bromo-N-(3-(tert-butyl(methyl)amino)propyl)benzamide (UNC2892, 4)] | > 500 | > 500 | > 500 | > 500 | > 500 | > 500 | > 500 | > 500 | > 500
